Patent publication US8236556B2, “Method of modulating gene expression using an ecdysone receptor-based inducible gene expression system” (Intrexon Corporation, priority 2001, dated 2012)

Assays:
GAL4CfEcR-DEF [1] = test: Transactivation of pFRLuc in NIH3T3 cells, VP16 RXR/USP constructs in partnership with GAL4CfEcR-DEF (FIG. 6); assay type: cell-based, Choristoneura fumiferana; details: for sensitivity of the switch to steroid versus non-steroid ligand: CfEcR/chimeric RXR-based switch (switch 1.13)
Protocol: (§1) Transfections: DNAs corresponding to the various switch constructs outlined in Example 1, specifically switches 1.1 through 1.6 were transfected into mouse NIH3T3 cells (ATCC) and human A549 cells (ATCC) as follows. […] NIH3T3 cells were grown in Dulbecco's modified Eagle medium (DMEM; LifeTechnologies) and A549 cells were grown in F12K nutrient mixture (LifeTechnologies). […] The cells were harvested and reporter activity was assayed. […] Reporter Assays: Cells were harvested 48 hours after adding ligands. […] Twenty μl of lysate were assayed. […] Thus, Applicants have made the surprising discovery that a chimeric RXR ligand binding domain may be used in place of a vertebrate RXR or an invertebrate RXR in an EcR-based inducible gene expression modulation system.
(§2) This Example describes the construction of four EcR-DEF-based gene switches comprising the DEF domains from Choristoneura fumiferana (Lepidoptera), Drosophila melanogaster (Diptera), Tenebrio molitor (Coleoptera), and Amblyomma americanum (Ixodidae) fused to a GAL4 DNA binding domain. In addition, the EF domains of vertebrate RXRs, invertebrate RXRs, or invertebrate USPs from Choristoneura fumiferana USP, Drosophila melanogaster USP, Locusta migratoria USP (Orthoptera), Mus musculus RXRα (Vertebrata), a chimera between MmRXRα and LmUSP (Chimera; of switch 1.13), Amblyomma americanum RXR homolog 1 (Ixodidae), Amblyomma americanum RXR homolog 2 (Ixodidae) were fused to a VP16 activation domain. […] The cells were harvested, lysed and luciferase reporter activity was measured in the cell lysates. Total fly luciferase relative light units are presented. […] The analysis was performed in triplicate and mean luciferase counts [total relative light units (RLU)] were determined as described above.

GAL4DmEcR-DEF = biological target: T1, GAL4DmEcR-DEF (Drosophila melanogaster, UniProt P34021); assay type: cell-based; details: NIH3T3 cells; for sensitivity of the switch to steroid versus non-steroid ligand: DmEcR/chimeric RXR-based switch (switch 1.20)
T1 construct: The D, E, and F domains from fruit fly Drosophila melanogaster EcR; expressed in transfected cells; host or cells: mouse NIH3T3 cells
T1 sequence (P34021 330-878): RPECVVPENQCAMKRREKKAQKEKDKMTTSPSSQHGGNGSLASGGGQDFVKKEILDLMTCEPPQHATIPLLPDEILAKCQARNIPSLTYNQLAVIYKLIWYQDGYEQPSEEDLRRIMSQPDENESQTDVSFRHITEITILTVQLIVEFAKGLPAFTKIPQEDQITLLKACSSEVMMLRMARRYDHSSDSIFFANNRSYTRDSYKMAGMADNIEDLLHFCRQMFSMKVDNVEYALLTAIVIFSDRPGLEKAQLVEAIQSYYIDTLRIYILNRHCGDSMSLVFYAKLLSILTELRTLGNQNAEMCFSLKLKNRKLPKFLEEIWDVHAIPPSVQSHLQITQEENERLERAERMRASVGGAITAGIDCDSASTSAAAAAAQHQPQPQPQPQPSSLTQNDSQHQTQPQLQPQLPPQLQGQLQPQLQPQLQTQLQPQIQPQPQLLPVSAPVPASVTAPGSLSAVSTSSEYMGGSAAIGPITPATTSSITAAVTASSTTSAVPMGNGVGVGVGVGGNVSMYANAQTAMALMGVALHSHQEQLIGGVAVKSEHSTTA
Protocol: as §1, §2

[2] = system: TmEcR/chimeric RXR-based switch (switch 1.21); test: Transactivation of pFRLuc in NIH3T3 cells, TmEcR with chimeric RXR-EF (FIG. 8); assay type: cell-based, Tenebrio molitor; details: switch 1.21, NIH3T3 cells
Protocol: as §1
(§3) This Example describes the construction of four EcR-DEF-based gene switches comprising the DEF domains from Choristoneura fumiferana (Lepidoptera), Drosophila melanogaster (Diptera), Tenebrio molitor (Coleoptera), and Amblyomma americanum (Ixodidae) fused to a GAL4 DNA binding domain. […] The cells were harvested, lysed and luciferase reporter activity was measured in the cell lysates. […] The analysis was performed in triplicate and mean luciferase counts [total relative light units (RLU)] were determined as described above.

[3] = system: AmaEcR/chimeric RXR-based switch (switch 1.22); test: Transactivation of pFRLuc in NIH3T3 cells, AmaEcR with chimeric RXR-EF (FIG. 8); assay type: cell-based, Amblyomma americanum; details: switch 1.22, NIH3T3 cells
Protocol: as §1, §3

GAL4CfEcR-DEF [4] = test: HsRXRβ/LmUSP chimeric RXR LBDs with GAL4CfEcR-DEF and pFRLuc in NIH3T3 cells (FIGS. 9 and 10); assay type: cell-based, Choristoneura fumiferana; details: CfEcR in combination with chimera 11, FIG. 10
Description: This Example describes Applicants' further analysis of gene expression cassettes encoding various chimeric RXR polypeptides comprising a mouse RXRα isoform polypeptide fragment or a human RXRβ isoform polypeptide fragment and an LmUSP polypeptide fragment in mouse NIH3T3 cells.
Three individual clones of each chimeric RXR LBD of Table 1 were transfected into mouse NIH3T3 cells along with either GAL4CfEcR-DEF (switches 1.25-1.29 of Example 1; FIGS. 9 and 10) or GAL4DmEcR-DEF (switches 1.30-1.34 of Example 1; FIG. 11) and the reporter plasmid pFRLuc as described above. The transfected cells were cultured in the presence of either a) 0, 0.2, 1, or 10 μM non-steroidal ligand (FIG. 9), or b) 0, 0.2, 1, or 10 μM steroid ligand PonA or 0, 0.4, 0.2, 1, or 10 μM non-steroid ligand (FIGS. 10 and 11) for 48 hours. The reporter gene activity was measured and total RLU are shown. The number on top of each bar is the maximum fold induction for that treatment and is the mean of three replicates.

[5] = system: GAL4CfEcR-DEF/VP16HsRXRβ-(1-8)-LmUSP-(9-12)-EF (βchimera 9; switch 1.27) gene switch; test: Effect of 9-cis-retinoic acid as second ligand on transactivation of switch 1.27 in NIH3T3 cells (FIG. 12); assay type: cell-based, Choristoneura fumiferana; details: 0.04 μM non-steroid ligand, absence of 9-cis-retinoic acid
Protocol: In particular, Applicants have determined the effect of 9-cis-retinoic acid on the transactivation potential of the GAL4CfEcR-DEF/VP16HsRXRβ-(1-8)-LmUSP-(9-12)-EF (βchimera 9; switch 1.27) gene switch along with pFRLuc in NIH 3T3 cells in the presence of non-steroid (GSE) for 48 hours.
Briefly, GAL4CfEcR-DEF, pFRLuc and VP16HsRXRβ-(1-8)-LmUSP-(9-12)-EF (chimera #9) were transfected into NIH3T3 cells and the transfected cells were treated with 0, 0.04, 0.2, 1, 5 and 25 μM non-steroidal ligand (GSE) and 0, 1, 5 and 25 μM 9-cis-retinoic acid (Sigma Chemical Company). The reporter activity was measured at 48 hours after adding ligands.

| Molecule | sensitivity of the switch to steroid versus non-steroid ligand (GAL4CfEcR-DEF [1]) | sensitivity of the switch to steroid versus non-steroid ligand (GAL4DmEcR-DEF) | sensitivity of the switch to ligand [2] | sensitivity of the switch to ligand [3] | response of EcR to ligand (GAL4CfEcR-DEF [4]) | induction [5] | fold induction (GAL4CfEcR-DEF [1]; partner for CfEcR, FIG. 6) | fold induction (GAL4DmEcR-DEF; partner for DmEcR, FIG. 7) |
| --- | --- | --- | --- | --- | --- | --- | --- | --- |
| CC(C)CC[C@@H](O)[C@](C)(O)[C@H]1CC[C@@]2(O)C3=CC(=O)[C@@H]4C[C@@H](O)[C@@H](O)C[C@]4(C)[C@H]3CC[C@]12C [PonA, ponasterone A] | more sensitive to non-steroid than PonA | more sensitive to PonA than non-steroid | more sensitive to PonA | more sensitive to PonA | responded well to non-steroid but not to PonA | – | – | – |
| CCc1c(OC)cccc1C(=O)NN(C(=O)c1cc(C)cc(C)c1)C(C)(C)C [non-steroid, N-(2-ethyl-3-methoxybenzoyl)-N′-(3,5-dimethylbenzoyl)-N′-tert-butylhydrazine] | more sensitive to non-steroid than PonA | more sensitive to PonA than non-steroid | less sensitive to non-steroid | less sensitive to non-steroid | responded well to non-steroid but not to PonA | very little induction | – | – |
| MmRXRα-LmUSP chimera: chimeric RXR LBD: helices 1-7 of MmRXRα-EF and helices 8-12 of LmUSP-EF (SEQ ID NO: 45), fused to VP16 (protein) MGPKKKRKVAPPTDVSLGDELHLDGEDVAMAHADALDDFDLDMLGDGDSPGPGFTPHDSAPYGALDMADFEFEQMFTDALGIDEYGGEFPANEDMPVEKILEAELAVEPKTETYVEANMGLNPSSPNDPVTNICQAADKQLFTLVEWAKRIPHFSELPLDDQVILLRAGWNELLIASFSHRSIAVKDGILLATGLHVHRNSAHSAGVGAIFDRVLTELVSKMRDMQMDKTELGCLRSVILFNPEVRGLKSAQEVELLREKVYAALEEYTRTTHPDEPGRFAKLLLRLPSLRSIGLKCLEHLFFFRLIGDVPIDTFLMEMLESPSDS | – | – | – | – | – | – | 11,000 fold | 1759 fold |
